Reference: US10564168B2, “Method for treating male infertility based on NOX5 protein levels in sperm” (priority 2013, dated 2020)

Assays:
human spermatozoa [1] = assay: Superoxide assay, luminol-based Diogenes chemiluminescence, whole spermatozoa; assay type: cell-based; details: for effect on ionomycin-induced superoxide chemiluminescence signal: 1 μM ionomycin; for effect on ionomycin-induced superoxide chemiluminescence signal / effect on H2O2-induced superoxide chemiluminescence signal: SOD 400 U/ml, DPI 10 μM, BAPTA 100 μM; for effect on H2O2-induced superoxide chemiluminescence signal: 100 μM H2O2, GKT136901 0.5 μM
Text: (§1) Human semen samples were obtained from patient donors as a part of their clinical evaluation for fertility and reproductive health status. Portions of the samples not required for clinical analyses were de-identified and made available for the research protocols described. Under these conditions, the Institutional Review Board determined that the study is exempt from requirements for protocol approval and informed consent. Semen was collected by masturbation into sterile plastic containers and allowed to liquefy for at least 30 min before being processed. The samples were centrifuged (500 g, 15 min) to separate the seminal plasma from spermatozoa, and the pellet washed twice in phosphate-buffered normal saline pH 7 with 10 mM glucose (PBS-G). The spermatozoa were then counted in a hemocytometer chamber, resuspended in PBS-G at 10^9/ml, and used for superoxide assays. Sperm samples containing leukocytes detected by microscopic examination were excluded from the study. For selected experiments, motile spermatozoa were collected using the swim-up procedure (Vijayakumar et al. (1986) Arch. Androl. 17, 223-230; Parrish and Foote (1987) J. Androl. 8, 259-266). Briefly, the spermatozoa were sedimented by centrifugation (500 g, 15 min) and the tube was then incubated upright for 60 min at 37° C. Motile spermatozoa that progressed from the pellet into the supernatant (swim-up fraction) were collected by aspiration and counted.
Superoxide generation was measured using a luminol-based chemiluminescence assay (Diogenes reagent, National Diagnostics, Atlanta, Ga.). […] Spermatozoa were suspended at 10^9/ml in PBS-G. A 100 μl aliquot of the Diogenes reagent was mixed with 2×10^7 spermatozoa and incubated at 37° C. for 2-4 minutes. Superoxide generation was measured at baseline and after stimulation with ionomycin (1 μM), phorbol myristate acetate (PMA, 1 μg/ml), or H2O2 (100 μM and other concentrations as indicated). Chemiluminescence was measured every 30-60 sec for up to 10-15 min using a Clarity™ BioTek luminometer and an integration time of 5 sec.
Spermatozoa were pre-incubated for 5 min prior to the superoxide assay with 400 U/ml superoxide dismutase (SOD), 10 μM diphenylene iodonium (DPI), or 100 μM 1,2-Bis (2-aminophenoxy) ethane-N,N,N′,N′-tetraacetic acid (BAPTA). […] In some experiments, cells were pre-exposed to the NOX inhibitor 2-(2-chlorophenyl)-4-methyl-5-(pyridin-2-ylmethyl)-1H-pyrazolo[4,3-c]pyridine-3,6(2H,5H)-dione (GKT136901, 0.5 μM and other concentrations as indicated) for 10 min before exposure to either H2O2 or PMA.

human spermatozoa [2] = assay: Swim-up procedure, sperm motility; assay type: cell-based; details: GKT136901 0.5 μM or DPI 10 μM; 100 μM H2O2
Text: as §1

[3] = system: HV1 proton channels in K562 and K562/NOX5 cells; assay: Perforated-patch clamp recording of proton currents; assay type: cell-based, human
Text: Micropipettes were pulled in several stages using a Flaming-Brown automatic pipette puller (Sutter Instruments, San Rafael, Calif.) from 7052 glass (Garner Glass Co., Claremont, Calif., USA), coated with Sylgard 184 (Dow Corning Corp., Midland, Mich.), heat polished to a tip resistance between 2 and 10 MΩ. Electrical contact with the pipette solution was achieved using a chloride silver wire. The reference electrode was made from an Ag—AgCl wire connected to the bath through an agar bridge made with Ringer solution (160 mM NaCl, 4.5 mM KCl, 2 mM CaCl2, 1 mM MgCl2, 5 mM Hepes adjusted to pH 7.4). Current signal from the Axopatch 200B (Axon Instruments, Foster City, Calif.) was recorded on PC through a Lab View SCB-68 (National Instruments, Austin, Tex.). Further data analysis was made with Origin 7.5. Seals were formed in Ringer solution in the bath, and the potential was zeroed when the pipette was in contact with the cell. Most measurements were done between 21 and 25° C.
K562 cells were transferred on chips or pipette into the recording chamber. To leave internal signaling pathways undisturbed, the perforated patch configuration was used. Low access resistance was usually reached after 5-10 minutes. The perforated patch recording bath and pipette solution contained 50 mM NH^4+ in the form of (NH4)2SO4, 2 mM MgCl2, 5 mM Bes or Pipes buffer, and 1 mM EGTA adjusted to pH 7.0 with TMAOH. […]

NOX1 = target: T1, NOX1 (Homo sapiens, UniProt Q9Y5S8); details: cited from earlier work
T1 sequence (Q9Y5S8 1-564): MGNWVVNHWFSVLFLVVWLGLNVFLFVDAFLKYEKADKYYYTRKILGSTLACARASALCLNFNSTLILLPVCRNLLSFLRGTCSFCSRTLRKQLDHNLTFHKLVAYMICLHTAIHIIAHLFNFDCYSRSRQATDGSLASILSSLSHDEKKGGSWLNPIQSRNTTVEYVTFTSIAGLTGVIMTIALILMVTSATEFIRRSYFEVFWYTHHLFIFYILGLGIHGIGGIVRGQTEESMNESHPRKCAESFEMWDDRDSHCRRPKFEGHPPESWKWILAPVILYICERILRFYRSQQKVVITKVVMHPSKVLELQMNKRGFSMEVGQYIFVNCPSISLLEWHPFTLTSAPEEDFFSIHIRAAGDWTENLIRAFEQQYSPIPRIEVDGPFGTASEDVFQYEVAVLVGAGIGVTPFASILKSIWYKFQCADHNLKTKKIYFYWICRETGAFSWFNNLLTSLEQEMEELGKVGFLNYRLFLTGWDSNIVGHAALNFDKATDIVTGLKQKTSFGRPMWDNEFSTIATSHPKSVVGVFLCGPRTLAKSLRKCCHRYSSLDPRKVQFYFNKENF
T1 sequence (P13498 1-195 partner): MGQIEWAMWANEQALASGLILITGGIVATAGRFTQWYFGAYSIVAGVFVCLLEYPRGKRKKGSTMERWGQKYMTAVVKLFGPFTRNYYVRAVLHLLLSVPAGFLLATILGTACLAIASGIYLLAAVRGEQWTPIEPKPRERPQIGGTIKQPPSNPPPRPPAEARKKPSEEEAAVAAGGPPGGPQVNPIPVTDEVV

NOX2 = target: T2, NOX2 (Homo sapiens, UniProt P04839); details: NOX1 and NOX4 versus NOX2; cited from earlier work
T2 sequence (P04839 2-570 limits assumed): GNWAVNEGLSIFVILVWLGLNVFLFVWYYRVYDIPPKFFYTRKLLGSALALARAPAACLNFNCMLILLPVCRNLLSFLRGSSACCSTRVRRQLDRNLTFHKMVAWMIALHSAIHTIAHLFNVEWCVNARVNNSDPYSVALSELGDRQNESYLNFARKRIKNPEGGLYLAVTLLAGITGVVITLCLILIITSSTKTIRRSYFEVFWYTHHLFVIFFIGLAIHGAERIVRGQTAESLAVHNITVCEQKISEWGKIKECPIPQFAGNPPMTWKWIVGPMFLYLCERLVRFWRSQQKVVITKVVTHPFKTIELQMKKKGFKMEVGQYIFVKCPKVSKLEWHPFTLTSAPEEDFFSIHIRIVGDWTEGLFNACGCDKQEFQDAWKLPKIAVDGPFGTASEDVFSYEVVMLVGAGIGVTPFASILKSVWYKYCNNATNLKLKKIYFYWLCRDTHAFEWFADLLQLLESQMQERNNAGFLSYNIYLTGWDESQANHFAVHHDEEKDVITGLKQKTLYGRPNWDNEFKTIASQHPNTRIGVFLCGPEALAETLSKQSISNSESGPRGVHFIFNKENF
T2 sequence (P13498 1-195 partner): T1 sequence (P13498 1-195 partner)

NOX5 = target: T3, NOX5 (Homo sapiens, UniProt Q96PH1); details: same conditions as Laleu et al.; GenKyoTex, personal communication; read-out: inhibitory constant for NOX5; cited from earlier work
T3 sequence (Q96PH1 1-765): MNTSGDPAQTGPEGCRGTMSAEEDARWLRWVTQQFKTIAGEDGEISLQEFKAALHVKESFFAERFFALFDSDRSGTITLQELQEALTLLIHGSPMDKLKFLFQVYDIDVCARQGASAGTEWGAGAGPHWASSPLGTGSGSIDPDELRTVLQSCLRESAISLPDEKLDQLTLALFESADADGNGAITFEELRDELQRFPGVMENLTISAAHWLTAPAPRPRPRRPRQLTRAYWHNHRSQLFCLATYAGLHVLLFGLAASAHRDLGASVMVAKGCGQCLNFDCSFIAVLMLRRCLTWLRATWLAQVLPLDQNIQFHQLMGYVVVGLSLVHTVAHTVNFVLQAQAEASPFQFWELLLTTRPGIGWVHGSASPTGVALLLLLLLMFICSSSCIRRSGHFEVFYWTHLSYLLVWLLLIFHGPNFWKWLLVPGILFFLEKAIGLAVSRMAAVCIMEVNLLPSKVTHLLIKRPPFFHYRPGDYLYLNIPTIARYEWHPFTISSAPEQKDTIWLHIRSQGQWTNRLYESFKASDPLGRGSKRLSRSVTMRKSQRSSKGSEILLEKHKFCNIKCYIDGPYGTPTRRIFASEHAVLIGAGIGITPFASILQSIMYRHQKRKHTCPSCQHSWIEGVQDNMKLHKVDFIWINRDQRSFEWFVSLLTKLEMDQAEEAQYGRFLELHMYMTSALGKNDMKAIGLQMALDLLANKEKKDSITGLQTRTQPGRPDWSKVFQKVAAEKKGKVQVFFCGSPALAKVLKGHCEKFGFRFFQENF

## O=C(O)CN(CC(=O)O)c1ccccc1OCCOc1ccccc1N(CC(=O)O)CC(=O)O [BAPTA, 1,2-Bis (2-aminophenoxy) ethane-N,N,N′,N′-tetraacetic acid]
Human spermatozoa [1]
  effect on ionomycin-induced superoxide chemiluminescence signal: blocked
  effect on H2O2-induced superoxide chemiluminescence signal: nearly completely abrogated

## c1ccc2c(c1)[I+]c1ccccc1-2 [DPI, diphenylene iodonium]
Human spermatozoa [1]
  effect on ionomycin-induced superoxide chemiluminescence signal: blocked
  effect on H2O2-induced superoxide chemiluminescence signal: nearly completely abrogated
Human spermatozoa [2]
  effect of pre-incubation on the H2O2 effect on motility: abrogated

## CN(C)CCCn1cc(C2=C(c3c[nH]c4ccccc34)C(=O)NC2=O)c2ccccc21 [GFX, GF109203X]
[3]; GFX 3 μM after 60 nM PMA
  effect on PMA response of proton channels: Most features of the PMA response of proton channels were reversed

## Cc1c2c(=O)n(-c3ccccc3Cl)[nH]c2cc(=O)n1Cc1ccccn1 [GKT136901, 2-(2-chlorophenyl)-4-methyl-5-(pyridin-2-ylmethyl)-1H-pyrazolo[4,3-c]pyridine-3,6(2H,5H)-dione]
Human spermatozoa [1]; 1 μg/ml PMA
  effect on PMA-stimulated superoxide production: inhibited the stimulation of superoxide production by PMA in a concentration-dependent manner
Human spermatozoa [1]
  effect on H2O2-induced superoxide chemiluminescence signal: nearly completely abrogated
Human spermatozoa [1]; human spermatozoa versus human neutrophils
  potency in inhibiting PMA-stimulated superoxide production, sperm cells as compared with neutrophils: ~10 fold
Human spermatozoa [2]
  effect of pre-incubation on the H2O2 effect on motility: abrogated
NOX1
  Ki: 160 ± 10 nM
NOX2
  selectivity over NOX2: ~9 fold
NOX5
  Ki: 450 ± 10 nM

## CCCCCCCCCCCCCC(=O)O[C@@H]1[C@@H](C)[C@@]2(O)[C@@H](C=C(CO)C[C@]3(O)C(=O)C(C)=C[C@@H]23)[C@@H]2C(C)(C)[C@]12OC(C)=O [PMA, phorbol myristate acetate]
[3]; 60 nM PMA
  response of proton channels to stimulation: enhanced gating mode

## C[C@H](CCC(=O)O)C[C@H](C)C[C@H](C)C(=O)/C=C(\O)[C@H](C)C[C@H](C)C/C=C/[C@@H](C)[C@@H](O)[C@@H](C)[C@@H](O)C[C@@H]1CC[C@@](C)([C@H]2CC[C@@](C)([C@@H](C)O)O2)O1 [ionomycin]
Human spermatozoa [1]; ionomycin 1 μM, PMA 1 μg/ml or H2O2 100 μM, 10 min
  induction of superoxide production by spermatozoa: induced vigorous superoxide production
